Conditions: in vivo, iv
Description: The present invention thus provides novel and non-obvious antimicrobial polyamide compositions, and methods of using same for treating and preventing mastitis in non-human animals. The methods generally comprise administering to an infected animal an effective amount of the veterinary composition to eliminate or cure, completely or substantially, mastitis-causing pathogen(s).

With “poly (4,4′-trimethylene dipiperidine bispropanoic acid-co-1,3-diamino propane)” as the substance, how does the maximum tolerated dose read?
The maximum tolerated dose was roughly 40 mg/kg.
